# Data from PubChem BioAssay (NCI).
#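 Tested at 5 concentrations; 48 h exposure; 96-well plates; endpoints linearly interpolated, else capped at highest concentration. GI50 = concentration required for 50% inhibition of growth. The concentration for full growth arrest is given as TGI.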
# Assays:
# Test in all cases: inhibition of tumour cell growth, NCI panel, 48 h
# [1] = tested on: MOLT-4 leukemia
# [2] = tested on: OVCAR-5 ovarian
# [3] = tested on: SNB-19 CNS
# [4] = tested on: MDA-MB-231 breast
# [5] = tested on: 786-0 renal
# [6] = tested on: A549 NSCLC
# [7] = tested on: HOP-62 NSCLC
# [8] = tested on: RXF 393 renal
# [9] = tested on: K-562 leukemia
# [10] = tested on: SR leukemia
# [11] = tested on: NCI/ADR-RES ovarian
# [12] = tested on: NCI-H522 lung
# [13] = tested on: UACC-257 melanoma
# [14] = tested on: SW-620 colon
# [15] = tested on: SNB-75 CNS
# [16] = tested on: HCT-15 colon
# [17] = tested on: BT-549 breast
# [18] = tested on: HT29 colon
# [19] = tested on: SK-MEL-5 melanoma
# [20] = tested on: OVCAR-8 ovarian
# [21] = tested on: SF-268 CNS
# [22] = tested on: KM12 colon
# [23] = tested on: SF-295 CNS
# [24] = tested on: DU-145 prostate
# [25] = tested on: LOX IMVI melanoma
# [26] = tested on: UO-31 renal
# [27] = tested on: A498 renal
# [28] = tested on: EKVX NSCLC
# [29] = tested on: RPMI-8226 leukemia
# [30] = tested on: CAKI-1 renal
# [31] = tested on: NCI-H460 lung
# [32] = tested on: CCRF-CEM leukemia
# [33] = tested on: ACHN renal
# [34] = tested on: HS 578T breast
# [35] = tested on: NCI-H23 lung
# [36] = tested on: IGROV1 ovarian
# [37] = tested on: T-47D breast
# [38] = tested on: TK-10 renal
# [39] = tested on: SK-MEL-28 melanoma
# [40] = tested on: OVCAR-3 ovarian
# [41] = tested on: SK-MEL-2 melanoma
# [42] = tested on: U251 CNS
# [43] = tested on: HL-60(TB) leukemia
# [44] = tested on: NCI-H226 lung
# [45] = tested on: M14 melanoma
# [46] = tested on: SF-539 CNS
# [47] = tested on: SK-OV-3 ovarian
# [48] = tested on: HCC-2998 colon
# [49] = tested on: HOP-92 NSCLC
# [50] = tested on: HCT-116 colon
# [51] = tested on: SN12C renal
# [52] = tested on: UACC-62 melanoma
# [53] = tested on: MALME-3M melanoma
# [54] = tested on: MDA-MB-435
# [55] = tested on: COLO 205 colon
# [56] = tested on: MCF7 breast
# [57] = tested on: OVCAR-4 ovarian
# [58] = tested on: PC-3 prostate
smiles,measurement,setting,value
CC(C)(C)Nc1nc2c(OCCc3ccccc3)cccn2c1-c1cccc(F)c1,GI50,[1],3.22 µM
same,TGI,[1],> 100 µM
same,GI50,[2],8.58 µM
same,TGI,[2],> 100 µM
same,GI50,[3],5.81 µM
same,TGI,[3],> 100 µM
same,GI50,[4],10.2 µM
same,TGI,[4],26.2 µM
same,GI50,[5],13.5 µM
same,TGI,[5],52.8 µM
same,GI50,[6],4.4 µM
same,TGI,[6],> 100 µM
same,GI50,[7],11.8 µM
same,TGI,[7],42 µM
same,GI50,[8],8.78 µM
same,TGI,[8],29.2 µM
same,GI50,[9],3.49 µM
same,TGI,[9],> 100 µM
same,GI50,[10],4.48 µM
same,TGI,[10],> 100 µM
same,GI50,[11],4.25 µM
same,TGI,[11],> 100 µM
same,GI50,[12],4.17 µM
same,TGI,[12],42.3 µM
same,GI50,[13],7.56 µM
same,TGI,[13],> 100 µM
same,GI50,[14],11.3 µM
same,TGI,[14],87.1 µM
same,GI50,[15],16.1 µM
same,TGI,[15],> 100 µM
same,GI50,[16],3.51 µM
same,TGI,[16],14.2 µM
same,GI50,[17],10.3 µM
same,TGI,[17],36.3 µM
same,GI50,[18],5.02 µM
same,TGI,[18],24 µM
same,GI50,[19],5.26 µM
same,TGI,[19],17.7 µM
same,GI50,[20],9.39 µM
same,TGI,[20],> 100 µM
same,GI50,[21],7.84 µM
same,TGI,[21],> 100 µM
same,GI50,[22],4.13 µM
same,TGI,[22],> 100 µM
same,GI50,[23],4.41 µM
same,TGI,[23],22 µM
same,GI50,[24],9.13 µM
same,TGI,[24],> 100 µM
same,GI50,[25],5.02 µM
same,TGI,[25],17 µM
same,GI50,[26],2.75 µM
same,TGI,[26],19.7 µM
same,GI50,[27],15.8 µM
same,TGI,[27],65.1 µM
same,GI50,[28],3.44 µM
same,TGI,[28],> 100 µM
same,GI50,[29],3.7 µM
same,TGI,[29],62.1 µM
same,GI50,[30],5.22 µM
same,TGI,[30],> 100 µM
same,GI50,[31],5.5 µM
same,TGI,[31],24.8 µM
same,GI50,[32],6.53 µM
same,TGI,[32],> 100 µM
same,GI50,[33],4.63 µM
same,TGI,[33],> 100 µM
same,GI50,[34],10.1 µM
same,TGI,[34],64.2 µM
same,GI50,[35],4.13 µM
same,TGI,[35],34.8 µM
same,GI50,[36],8.99 µM
same,TGI,[36],> 100 µM
same,GI50,[37],3.55 µM
same,TGI,[37],> 100 µM
same,GI50,[38],14.2 µM
same,TGI,[38],> 100 µM
same,GI50,[39],3.93 µM
same,TGI,[39],74.6 µM
same,GI50,[40],3.91 µM
same,TGI,[40],39 µM
same,GI50,[41],3.11 µM
same,TGI,[41],12.4 µM
same,GI50,[42],6.19 µM
same,TGI,[42],25.2 µM
same,GI50,[43],3.78 µM
same,TGI,[43],18.8 µM
same,GI50,[44],6.29 µM
same,TGI,[44],63 µM
same,GI50,[45],6.79 µM
same,TGI,[45],32.1 µM
same,GI50,[46],10.1 µM
same,TGI,[46],23.1 µM
same,GI50,[47],19.9 µM
same,TGI,[47],> 100 µM
same,GI50,[48],4.81 µM
same,TGI,[48],69.6 µM
same,GI50,[49],3.3 µM
same,TGI,[49],> 100 µM
same,GI50,[50],4.12 µM
same,TGI,[50],36 µM
same,GI50,[51],3.99 µM
same,TGI,[51],> 100 µM
same,GI50,[52],2.92 µM
same,TGI,[52],12.2 µM
same,GI50,[53],3.6 µM
same,TGI,[53],22.8 µM
same,GI50,[54],5.07 µM
same,TGI,[54],27.4 µM
same,GI50,[55],8.88 µM
same,TGI,[55],26.8 µM
same,GI50,[56],4.34 µM
same,TGI,[56],32.4 µM
same,GI50,[57],4.52 µM
same,TGI,[57],> 100 µM
same,GI50,[58],4.91 µM
same,TGI,[58],> 100 µM
